Results as given in ChEMBL document CHEMBL1949630, “Discovery of benzodihydroisofurans as novel, potent, bioavailable and brain-penetrant prolylcarboxypeptidase inhibitors” (Bioorg Med Chem Lett, 2012).

Experiments:
[1] = molecular target: T1, Lysosomal Pro-X carboxypeptidase (Mus musculus, UniProt Q7TMR0); test: Inhibition of PrCP in mouse plasma assessed as angiotensin 3 cleavage by whole serum shift assay
T1 sequence (Q7TMR0 whole entry): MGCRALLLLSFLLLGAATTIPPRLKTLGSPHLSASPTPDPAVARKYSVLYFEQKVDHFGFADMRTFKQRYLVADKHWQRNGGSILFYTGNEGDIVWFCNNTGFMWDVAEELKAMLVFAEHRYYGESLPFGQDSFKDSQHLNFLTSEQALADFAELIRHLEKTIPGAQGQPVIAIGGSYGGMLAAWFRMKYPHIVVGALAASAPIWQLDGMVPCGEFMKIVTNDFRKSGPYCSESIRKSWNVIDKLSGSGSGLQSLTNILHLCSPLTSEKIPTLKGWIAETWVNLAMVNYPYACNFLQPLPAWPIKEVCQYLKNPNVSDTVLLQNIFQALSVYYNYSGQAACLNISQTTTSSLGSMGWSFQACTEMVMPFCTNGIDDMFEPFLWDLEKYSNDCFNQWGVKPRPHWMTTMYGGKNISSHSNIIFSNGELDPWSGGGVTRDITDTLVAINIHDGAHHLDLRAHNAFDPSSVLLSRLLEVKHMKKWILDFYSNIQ

[2] = molecular target: T1, Lysosomal Pro-X carboxypeptidase; test: Inhibition of mouse PrCP
Mus musculus [3] = test: Dose normalized AUC in C57BL/6 mouse at 1 mg/kg by LC/MS/MS analysis; format: ADME, organism-based; design: dose 1 mg/kg; conditions: in vivo
[4] = Oral bioavailability in C57BL/6 mouse at 1 mg/kg by LC/MS/MS analysis; format: ADME, organism-based; conditions: in vivo
[5] = Half life in C57BL/6 mouse at 0.5 mg/kg, iv and 1 mg/kg, po by LC/MS/MS analysis; format: ADME, organism-based; conditions: in vivo
[6] = Volume of distribution at steady state in C57BL/6 mouse at 0.5 mg/kg, iv and 1 mg/kg, po by LC/MS/MS analysis; format: ADME, organism-based; conditions: in vivo, read-out: Vdss
[7] = Clearance in C57BL/6 mouse at 0.5 mg/kg, iv and 1 mg/kg, po by LC/MS/MS analysis; format: ADME, organism-based; conditions: in vivo
[8] = Fraction unbound in human plasma; format: ADME, cell-free
[9] = Fraction unbound in mouse plasma; format: ADME, cell-free
[10] = Clearance in C57BL/6 mouse at 1 mg/kg, iv and 2 mg/kg, po by LC/MS/MS analysis; format: ADME, organism-based; conditions: in vivo
[11] = Oral bioavailability in C57BL/6 mouse at 2 mg/kg by LC/MS/MS analysis; format: ADME, organism-based; conditions: in vivo
[12] = Volume of distribution at steady state in C57BL/6 mouse at 1 mg/kg, iv and 2 mg/kg, po by LC/MS/MS analysis; format: ADME, organism-based; conditions: in vivo, read-out: Vdss
[13] = Half life in C57BL/6 mouse at 1 mg/kg, iv and 2 mg/kg, po by LC/MS/MS analysis; format: ADME, organism-based; conditions: in vivo
Mus musculus [14] = test: Dose normalized AUC in C57BL/6 mouse at 2 mg/kg by LC/MS/MS analysis; format: ADME, organism-based; design: dose 2 mg/kg; conditions: in vivo

Row | Compound | IC50 [1] [nM] | IC50 [2] [nM] | AUC/dose (Mus musculus [3]) [µM·kg·h/mg] | bioavailability [4] [%] | half-life [5] [h] | Vd [6] [L/kg] | clearance [7] [mL/min/kg] | fraction unbound [8] | fraction unbound [9] | clearance [10] [mL/min/kg] | bioavailability [11] [%] | Vd [12] [L/kg] | half-life [13] [h] | AUC/dose (Mus musculus [14]) [µM·kg·h/mg]
1 | FC(F)(F)Oc1ccc(CN2CCC3(CC2)OC(c2cc(Cl)cc(Cl)c2)c2cnccc23)cc1 (racemic) | 427 | 5.2 |  |  |  |  |  |  |  |  |  |  |  | 
2 | CC(C)(c1ccc(OC(F)(F)F)cc1)N1CCC2(CC1)OC(c1cc(Cl)ccn1)c1cccnc12 (racemic) | 351 | 0.39 | 0.41 | 41 | > 8 |  |  |  |  |  |  |  |  | 
3 | CC(c1ccc(F)cn1)N1CCC2(CC1)OC(c1cc(Cl)cc(Cl)c1)c1cccnc12 (centres undefined) | 14 | 1.1 | 0.028 | 5.4 | 4 | 19 | 69 |  |  |  |  |  |  | 
4 | Fc1ccc(CN2CCC3(CC2)OC(c2cc(Cl)cc(Cl)c2)c2ccccc23)nc1 (centres undefined) |  | 2.5 | 1.36 | 22 | 7 | 16 | 28 |  |  |  |  |  |  | 
5 | Clc1cc(Cl)cc(C2OC3(CCN(Cc4cc5ccccc5o4)CC3)c3ccccc32)c1 (racemic) | > 1000 | 2.5 |  |  |  |  |  |  |  |  |  |  |  | 
6 | FC(F)(F)Oc1ccc(CN2CCC3(CC2)OC(c2cc(Cl)cc(Cl)c2)c2cccnc23)cc1 (centres undefined) |  | 1.4 | 0.26 | 22 | 4 | 8.2 | 28 |  |  |  |  |  |  | 
7 | O=S(=O)(c1ccc(OC(F)(F)F)cc1)N1CCC2(CC1)OC(c1cc(Cl)cc(Cl)c1)c1cccnc12 (racemic) | 712 | 1.8 | 0.33 | 36 | 4.8 | 9.5 | 33 | < 0.0006 | < 0.0006 |  |  |  |  | 
8 | O=S(=O)(c1ccc(C(F)(F)F)cn1)N1CCC2(CC1)OC(c1cc(Cl)cc[n+]1[O-])c1ccccc12 (racemic) |  | 0.11 | 0.1 | 23 | 2.1 | 12 | 87 | 0.05 | 0.025 |  |  |  |  | 
9 | FC(F)(F)Oc1ccc(CN2CCC3(CC2)OC(c2ccc(Cl)cn2)c2ccccc23)cc1 (racemic) |  | 25 | 0.46 | 35 | 6.5 | 14 | 30 |  |  |  |  |  |  | 
10 | [O-][n+]1ccc(Cl)cc1C1OC2(CCN(Cc3ccc(OC(F)(F)F)cc3)CC2)c2ccccc21 (single isomer, unassigned) |  | 0.38 |  |  |  |  |  | 0.006 | 0.007 | 57 | 72 | 27 | 5.6 | 0.43
11 | FC(F)(F)c1ccc(CN2CCC3(CC2)OC(c2cc(Cl)cc(Cl)c2)c2ccccc23)nc1 (racemic) | 144 | 0.71 | 0.11 | 16 | 4.1 | 11 | 51 |  |  |  |  |  |  | 
12 | CC(C)(O)C(c1ccccc1)N1CCC2(CC1)OC(c1cc(Cl)cc(Cl)c1)c1cccnc12 (racemic) |  | 5.2 | 0.11 | 16 | 3.4 | 7.3 | 38 |  |  |  |  |  |  | 
13 | Clc1cc(Cl)cc(C2OC3(CCN(Cc4ccc(N5CCCC5)cn4)CC3)c3ccccc32)c1 (racemic) |  | 17 | 1.22 | 23 | 8.5 | 4.7 | 7.6 |  |  |  |  |  |  | 
14 | FC(F)(F)Oc1ccc(CN2CCC3(CC2)OC(c2cc(Cl)cc(Cl)c2)c2ccncc23)cc1 (racemic) | 380 | 1.3 | 0.28 | 29 | 6.1 | 15 | 35 |  |  |  |  |  |  | 
15 | CC(c1ccc(F)cn1)N1CCC2(CC1)OC(c1cc(Cl)cc(Cl)c1)c1ccccc12 (racemic) | 90 | 0.31 | 0.27 | 22 | 5.9 | 14 | 31 |  |  |  |  |  |  | 
16 | FC(F)(F)Oc1ccc(CN2CCC3(CC2)OC(c2cc(Cl)cc(Cl)c2)c2ccccc23)cc1 (centres undefined) | > 1000 | 1 |  |  |  |  |  |  |  | 8.1 | 53 | 4.4 | 7 | 2.16
17 | CC(c1ccc(F)cn1)N1CCC2(CC1)OC(c1cc(Cl)ccn1)c1ccccc12 (racemic) |  |  | 0.032 | 7.8 | 1.7 | 13 | 96 |  |  |  |  |  |  | 
18 | FC(F)(F)Oc1ccc(CN2CCC3(CC2)OC(c2ccccn2)c2ccccc23)cc1 (racemic) |  | 20 | 0.14 | 25 | 5 | 26 | 70 |  |  |  |  |  |  | 
19 | OCC(c1ccccc1)N1CCC2(CC1)OC(c1cc(Cl)cc(Cl)c1)c1cccnc12 (racemic) |  | 110 | 0.05 | 17 | 2.3 | 20 | 126 |  |  |  |  |  |  | 
20 | CC(c1ccc(F)cn1)N1CCC2(CC1)OC(c1cc(Cl)ccn1)c1cccnc12 (racemic) | 19 | 10.6 | 0.008 | 2.6 | 2.1 | 17 | 127 |  |  |  |  |  |  | 
21 | FC(F)(F)Oc1ccc(CN2CCC3(CC2)OC(c2cc(Cl)ccn2)c2cccnc23)cc1 (racemic) |  | 5.8 |  |  |  |  |  |  |  | 74 | 47 | 28 | 5 | 0.23
